Earlier results as cited in paper PMC3726336, “Product inhibition of cellulases studied with ^14C-labeled cellulose substrates” (Biotechnology for Biofuels, 2013).

Target: Cel7A from Trichoderma harzianum
Parameters: method as in PMID 23114223
Details: hydrolysis of chloro-nitrophenyl lactoside; read-out: Ki value for cellobiose inhibition; cited from earlier work

In the case of `O=C[C@H](O)[C@@H](O)[C@H](O[C@@H]1O[C@H](CO)[C@@H](O)[C@H](O)[C@H]1O)[C@H](O)CO` [cellobiose, Cellobiose], the Ki is listed as 7.2 mM.
